Results published in patent US12208108B2, “Drug targets of delayed aging and human brain diseases” (Texas Tech University System, priority 2016, dated 2025).
Marks after values point to notes of the source that are not given here.

Tested on: Human Neuroblastoma (SHSY5Y) cells
Test: mRNA levels by Sybr-Green real-time RT-PCR
Assay type: cell-based
Description: mRNA levels of mitochondrial dynamics, mitochondrial biogenesis and synaptic genes. Using the reagent TriZol (Invitrogen), the inventors isolated total RNA from all DDQ-treated and untreated cells. mRNA levels of mitochondrial dynamic (Drp1, Fis1, Mfn1 and Mfn2), mitochondrial biogenesis genes (PGC1α, Nrf1, Nrf2 and TFAM) and synaptic genes (PSD95, synaptophysin, synapsin 1, synapsin 2, synaptobrevin 1, synaptobrevin 2, synaptopodin, and GAP43) were measured by using Sybr-Green chemistry-based quantitative real time RT-PCR.
FIG. 3 illustrates the experimental strategy of the cell culture work and including treatments. The cells were grown in a medium (1:1 DMEM and F12, 10% FBS, lx penicillin, and streptomycin) at 37° C. in a humified incubator with a 5% CO2 environment. After seeding were allowed to grow for 24-48 hrs or until 80% confluence in six-well plates and used for experiments. The inventors used five different groups of cells—(1) untreated SHSY5Y cells; (2) SHSY5Y cells treated with DDQ (250 nM final concentration) for 24 hrs; (3) SHSY5Y cells incubated with Aβ peptide 1-42 (20 uM final concentration) for 6 hrs; (4) SHSY5Y cells treated Aβ for 6 hrs+DDQ for 24 hrs and (5) SHSY5Y cells treated DDQ for 24 hrs and Aβ for 6 hrs. Half a million SHSY5Y cells were suspended per well into six-well plates. The inventors used Aβ peptide 1-42 and DDQ 250 nM in the experiments. After treatments, the inventors harvested cells, conducted experiments to measure the levels mRNA using Sybr-Green based real-time RT-PCR, proteins using immunoblotting and immunofluorescence analysis and cell viability using MTT assay. The inventors counted the number of mitochondria by electron microscopy.
Quantification of mitochondrial dynamics, biogenesis and synaptic genes expression using real-time RT-PCR. Using the reagent TriZol (Invitrogen), the inventors isolated total RNA from control and experimental groups (FIG. 3). Using primer express Software (Applied Biosystems), the inventors designed the oligonucleotide primers for the housekeeping genes β-actin, mitochondrial structural genes; fission (Drp1 and Fis1); fusion genes (MFN1, MFN2); mitochondrial biogenesis genes PGC1a, Nrf1, Nrf2 and TFAM; and synaptic genes (PSD95, synaptophysin, synapsin 1, synapsin 2, synaptobrevin 1, synaptobrevin 2, synaptopodin, and GAP43). Using SYBR-Green chemistry-based quantitative real-time RT-PCR, the inventors measured mRNA expression of the genes mentioned above as described by Manczak et al..

[1] = Aβ + DDQ (Aβ1-42 20 μM 6 hrs, then DDQ 24 hrs) vs untreated cells
[2] = Aβ + DDQ (Aβ1-42 6 hrs, then DDQ 24 hrs) vs Aβ treated cells
[3] = DDQ 250 nM 24 hrs vs untreated cells
[4] = DDQ + Aβ (DDQ 24 hrs, then Aβ1-42 6 hrs) vs Aβ treated cells
[5] = DDQ + Aβ (DDQ 24 hrs, then Aβ1-42 6 hrs) vs untreated cells

## CCOP(=O)(OCC)C(NCCc1ccc(O)c(O)c1)c1ccnc2ccccc12 (stereo not shown) [DDQ, diethyl(3,4-dihydroxyphenethylamine)(quinolin-4-yl)methylphosphonate]
[1]
  Drp1 mRNA fold changes: 1.9* fold
  Fis1 mRNA fold changes: −1.2 fold
  GAP43 mRNA fold changes: 1.1 fold
  Mfn1 mRNA fold changes: 1.4 fold
  Mfn2 mRNA fold changes: 1.3 fold
  Nrf1 mRNA fold changes: −1.7* fold
  Nrf2 mRNA fold changes: −1.3 fold
  PGC1a mRNA fold changes: −1.8* fold
  PSD95 mRNA fold changes: −1.4* fold
  Synapsin1 mRNA fold changes: 1.1 fold
  Synapsin2 mRNA fold changes: 1.1 fold
  Synaptobrevin1 mRNA fold changes: −1.1 fold
  Synaptobrevin2 mRNA fold changes: 1.0 fold
  Synaptophysin mRNA fold changes: −2.4* fold
  Synaptopodin mRNA fold changes: −1.1 fold
  TFAM mRNA fold changes: −2.0* fold
[2]
  Drp1 mRNA fold changes: −1.7* fold
  Fis1 mRNA fold changes: −2.0* fold
  GAP43 mRNA fold changes: 1.7* fold
  Mfn1 mRNA fold changes: 3.3** fold
  Mfn2 mRNA fold changes: 3.4** fold
  Nrf1 mRNA fold changes: 2.6 fold
  Nrf2 mRNA fold changes: 2.1 fold
  PGC1a mRNA fold changes: 2.5 fold
  PSD95 mRNA fold changes: 1.8* fold
  Synapsin1 mRNA fold changes: 2.1* fold
  Synapsin2 mRNA fold changes: 2.4* fold
  Synaptobrevin1 mRNA fold changes: 2.0* fold
  Synaptobrevin2 mRNA fold changes: 2.1* fold
  Synaptophysin mRNA fold changes: 1.6* fold
  Synaptopodin mRNA fold changes: 2.0* fold
  TFAM mRNA fold changes: 2.3 fold
[3]
  Drp1 mRNA fold changes: −2.2* fold
  Drp1 mRNA levels, fold decrease: 2.2 fold
  Fis1 mRNA fold changes: −4.4*** fold
  Fis1 mRNA levels, fold decrease: 4.4 fold
  GAP43 mRNA fold changes: 1.2 fold
  Mfn1 mRNA fold changes: 1.7 fold
  Mfn2 mRNA fold changes: 2.3 fold
  Nrf1 mRNA fold changes: 1.9 fold
  Nrf2 mRNA fold changes: 2.7 fold
  PGC1a mRNA fold changes: 1.5 fold
  PSD95 mRNA fold changes: 1.4 fold
  Synapsin1 mRNA fold changes: 1.0 fold
  Synapsin2 mRNA fold changes: 1.7 fold
  Synaptobrevin1 mRNA fold changes: 1.0 fold
  Synaptobrevin2 mRNA fold changes: 1.3 fold
  Synaptophysin mRNA fold changes: 1.4 fold
  Synaptopodin mRNA fold changes: 1.0 fold
  TFAM mRNA fold changes: 1.7 fold
[4]
  Drp1 mRNA fold changes: −4.6*** fold
  Fis1 mRNA fold changes: −2.5* fold
  GAP43 mRNA fold changes: 1.7* fold
  Mfn1 mRNA fold changes: 2.9** fold
  Mfn2 mRNA fold changes: 2.9** fold
  Nrf1 mRNA fold changes: 4.9 fold
  Nrf2 mRNA fold changes: 2.6 fold
  PGC1a mRNA fold changes: 3.9 fold
  PSD95 mRNA fold changes: 2.1* fold
  Synapsin1 mRNA fold changes: 2.5* fold
  Synapsin2 mRNA fold changes: 2.9** fold
  Synaptobrevin1 mRNA fold changes: 1.7* fold
  Synaptobrevin2 mRNA fold changes: 2.3* fold
  Synaptophysin mRNA fold changes: 2.4* fold
  Synaptopodin mRNA fold changes: 2.1* fold
  TFAM mRNA fold changes: 3.2 fold
[5]
  Drp1 mRNA fold changes: −2.1* fold
  Fis1 mRNA fold changes: −1.3 fold
  GAP43 mRNA fold changes: 1.1 fold
  Mfn1 mRNA fold changes: 1.2 fold
  Mfn2 mRNA fold changes: 1.1 fold
  Nrf1 mRNA fold changes: 1.1 fold
  Nrf2 mRNA fold changes: −1.1 fold
  PGC1a mRNA fold changes: −1.1 fold
  PSD95 mRNA fold changes: −1.2 fold
  Synapsin1 mRNA fold changes: 1.3 fold
  Synapsin2 mRNA fold changes: 1.8* fold
  Synaptobrevin1 mRNA fold changes: −1.4 fold
  Synaptobrevin2 mRNA fold changes: 1.0 fold
  Synaptophysin mRNA fold changes: −1.6* fold
  Synaptopodin mRNA fold changes: −1.1 fold
  TFAM mRNA fold changes: −1.5* fold
